Where two headings read alike, the source gives them in different places.
How the values were obtained:
[1] = Beagle pharmacokinetic study (ig/sc/iv, plasma LC/MS/MS); type: in vivo, beagles; conditions: for AUC(0-t) / half-life / Cmax: dog, plasma; for AUC(0-t): read-out: Area under curve AUC0-72; for half-life: read-out: Half life T½ (converted); for Cmax: read-out: Plasma concentration Cmax
Procedure: Taking beagles as test animals, and the drug concentrations in dog plasma at various times after intragastric administration (ig)/subcutaneous injection (sc)/intravenous injection (iv) administration of the compound of Example 1-1 and Positive Control Example 1 were measured by using LC/MS/MS method. The pharmacokinetic performance in beagles of the compounds of the present disclosure was studied and the pharmacokinetic profile thereof was evaluated.
18 non-naïve beagles (999M-004, medicilon) with 7-12 kg, every 3 of which were in one group.
The intragastric administration group: a certain amount of the compounds was weighed, ethanol with a volume of 5% of the final volume, 20% PG, 45% PEG300 and 30% deionized water were added (the pH was adjusted to be about 2 with 0.01 N HCl), and the reaction mixture was subjected to ultrasonic stirring for uniform mixing to give an administration solution at a concentration of 0.8 mg/mL.
The subcutaneous injection administration group: a certain amount of the compounds was weighed, 2% aqueous poloxamer 188 solution with a proper volume was added, and the reaction mixture was subjected to ultrasonic stirring for uniform mixing to give a suspension administration solution at a concentration of 200 mg/mL.
The intravenous administration group: a certain amount of the compounds was weighed, 5% volume of DMSO, 30% PG, 30% PEG400 and 35% volume of normal saline were added, and the reaction mixture was subjected to vortex ultrasonic stirring for uniform mixing to give an administration solution at a concentration of 0.5 mg/mL.
Beagles were intragastrically administered with the compounds after fasting overnight, at a dose of 4.0 mg/kg and a volume of 5.0 mL/kg.
Beagles were subcutaneously injected with the compounds after fasting overnight, at a dose of 6.0 mg/kg and a volume of 0.03 mL/kg.
Beagles were intravenously injected with the compounds after fasting overnight, at a dose of 1.0 mg/kg and a volume of 2 mL/kg.
Beagles were intragastrically administered with the compound of Example 1-1/Positive Control Example 1, and 1 mL of blood was collected from the orbit before administration and at 0.25 h, 0.5 h, 1.0 h, 2.0 h, 4.0 h, 6.0 h, 8.0 h, 12.0 h, 24 h, 32 h, 48 h, 56 h and 72 h after administration, respectively, and placed in EDTA-K2 anticoagulant blood collection tubes, plasma was centrifuged (centrifugal force: 2200 g, centrifugation time: 10 min, 2-8° C.), and stored at −80° C., and food intake was resumed 3 h after administration.
The compound of Example 1-1/Positive Control Example 1 was subcutaneously injected to beagles, and 1 mL of blood was collected before administration and at 1.0 h, 3.0 h, 8.0 h, 24 h, 48 h, 72 h, 96 h, 168 h, 336 h, 432 h and 504 h after administration, respectively, and placed in EDTA-K2 anticoagulant blood collection tubes, plasma was centrifuged (centrifugal force: 2200 g, centrifugation time: 10 min, 2-8° C.), and stored at −80° C., and food intake was resumed 3 h after administration.
The content of the compound to be tested in the plasma of beagles was determined after the intragastric administration of the compounds at different concentrations: 20 μL of the plasma in beagles at each time after administration was taken, 200 μL of methanol containing internal standard (100 ng/mL) was added, the reaction mixture was subjected to vortex mixing for 1 min, and centrifuged for 7 min (centrifugal force: 18000 g), and 1 μL of the supernatant was taken from the plasma sample for LC/MS/MS analysis. […]

[2] = Monkey pharmacokinetic study (iv, plasma LC/MS/MS); type: in vivo, cynomolgus monkeys; conditions: cynomolgus monkey, intravenous injection, 1 mg/kg
Procedure: Taking cynomolgus monkeys as test animals and the drug concentrations in monkey plasma at various times after intravenous injection (iv) of the compounds of Example 1-1 and Positive Control Example 1 were measured by using LC/MS/MS method. The pharmacokinetic performance in cynomolgus monkeys of the compounds of the present disclosure was studied and the pharmacokinetic profile thereof was evaluated.
6 non-naïve cynomolgus monkeys (999M-004, medicilon) with 2-5 kg, every 3 of which were in one group.
A certain amount of the compounds was weighed, 5% volume of DMSO, 30% PG, 30% PEG400 and 35% volume of normal saline were added, and the reaction mixture was subjected to vortex ultrasonic stirring for uniform mixing to give a clean administration solution at a concentration of 0.5 mg/mL.
Monkeys were intravenously injected with the compounds after fasting overnight, at a dose of 1.0 mg/kg and a volume of 2 mL/kg.
The compound of Example 1-1/Positive Control Example 1 was intravenously injected to monkeys, and 1 mL of blood was collected through femoral vein before administration and at 5 min, 0.25 h, 0.5 h, 1.0 h, 2.0 h, 4.0 h, 8.0 h, 12.0 h, 24 h, 32 h, 48 h, 56 h and 72 h after administration, respectively, and placed in EDTA-K2 anticoagulant blood collection tubes, plasma was centrifuged (centrifugal force: 2200 g, centrifugal time: 10 min, 2-8° C.), and stored at −80° C., and food intake was resumed 3 h after administration.

[3] = po, intragastric administration, 4 mg/kg
[4] = sc, subcutaneous injection, 6 mg/kg

AUC(0-t) ([1]; intravenous injection, 1 mg/kg): 14700 ng·h/mL
half-life ([1]; intravenous injection, 1 mg/kg): 822 min
Cmax ([1]; intravenous injection, 1 mg/kg): 1110 ng/mL
AUC(0-t) [1, 3]: 11200 ng·h/mL
half-life [1, 3]: 1380 min
Cmax [1, 3]: 414 ng/mL
AUC(0-t) [1, 4]: 17700 ng·h/mL
Cmax [1, 4]: 54.6 ng/mL
Clearance CLz/F ([1]; intravenous injection, 1 mg/kg): 1.1 mL/min/kg
Clearance CLz/F [2]: 7.8 mL/min/kg
AUC(0-t) ([2]; plasma, read-out: Area under curve AUC0-72): 2130 ng·h/mL
SMILES: CC(C)(C#Cc1ccc(-c2ccc(Cl)c3c(NS(C)(=O)=O)nn(CC(F)(F)F)c23)c([C@H](Cc2cc(F)cc(F)c2)NC(=O)Cn2nc(C(F)(F)F)c3c2C(F)(F)[C@@H]2C[C@H]32)n1)S(C)(=O)=O [Positive Control Example 1, N—((S)-1-(3-(4-chloro-3-(methylsulfonamido)-1-(2,2,2-trifluoroethyl)-1H-indazol-7-yl)-6-(3-methyl-3-(methylsulfonyl)but-1-yn-1-yl)pyridin-2-yl)-2-(3,5-difluorophenyl)ethyl)-2-((3bS,4aR)-5,5-difluoro-3-(trifluoromethyl)-3b,4,4a,5-tetrahydro-1H-cyclopropa[3,4]cyclopenta[1,2-c]pyrazol-1-yl)acetamide, reference compound]

From patent US12428396B2, “Fused pyridine ring derivative, preparation method therefor, and pharmaceutical use thereof” (priority 2019, dated 2025)
